Molecular target: T1, human muscarinic M3 receptor (Homo sapiens, UniProt P20309)
T1 construct: expressed in transfected cells; host or cells: CHO (CHO-K1) cells
Assay: hM3 competition binding assay (3H-NMS, CHO cell membranes)
Settings: CHO cell membranes expressing human M3; 3H-NMS at 5×KD, 24 hr at RT; IC50 corrected by Cheng-Prussoff
Method: Binding Affinity Assessment at the Human Recombinant M3 Muscarinic Receptor
Cell Pellets from CHO (Chinese Hamster Ovary) cells recombinantly expressing the human muscarinic M3 receptor were homogenised in 20 mM HEPES (pH7.4) and centrifuged at 48000×g for 20 min at 4° C. The pellet was re-suspended in buffer and the homogenisation and centrifugation steps repeated. The resulting pellet was re-suspended in 1 ml buffer per 1 ml original packed cell volume and the homogenisation step repeated. Protein estimation was carried out on the suspension and 1 ml aliquots of ˜1 mg/ml frozen at −80° C.
hM3 Competition Binding Assay Protocol
Membranes (5 µg/well) were incubated with ^3H-NMS (at a concentration 5×KD) plus/minus test compound for 24 hr at RT (room temperature) in a 1 ml polystyrene 96-well deep well block. The final assay volume was 200 µl, comprising of: 20 µl plus/minus test compound; 20 µl ^3H-NMS (Perkin Elmer NEN 636) and 160 µl membrane solution. Total Binding was defined with 0.1% DMSO; Non-Specific Binding was defined with 1 µM Atropine. Assay buffer was 20 mM Hepes (pH 7.4).
Once all assay components were added, plates were covered and incubated at room temperature for 24 hrs with shaking. The assay was terminated by rapidly filtering through GF/B Unifilter plates pre-soaked with 0.5% polyethylenimine, using a Packard filtermate harvester, the filter plate was then washed with 3×1 ml 4° C. assay buffer. The filter plates were dried at 45° C. for 1 hour. The bottoms of the filter plates were sealed and 50 µl/well of Microscint ‘0’ added, the top of the plates were sealed with a Topseal. Following 90 mins, the plates were read on an NXT Topcount (1 minute read time per well).
The resulting data was expressed as a percentage of the specific binding (Specific binding=Total binding−Non-Specific Binding). % specific binding versus test compound concentration was plotted to determine an IC50 from a sigmoid curve using an in-house data analysis programme. IC50 values corrected to Ki values by applying the Cheng-Prussoff equation: […]
where IC50 is the concentration of unlabelled drug which inhibits by 50% the specific radioligand binding. [L] is the free radioligand concentrations and KD and Ki are the equilibrium dissociation constants of the radioligand and unlabelled drug respectively.

T1 sequence (P20309 whole entry): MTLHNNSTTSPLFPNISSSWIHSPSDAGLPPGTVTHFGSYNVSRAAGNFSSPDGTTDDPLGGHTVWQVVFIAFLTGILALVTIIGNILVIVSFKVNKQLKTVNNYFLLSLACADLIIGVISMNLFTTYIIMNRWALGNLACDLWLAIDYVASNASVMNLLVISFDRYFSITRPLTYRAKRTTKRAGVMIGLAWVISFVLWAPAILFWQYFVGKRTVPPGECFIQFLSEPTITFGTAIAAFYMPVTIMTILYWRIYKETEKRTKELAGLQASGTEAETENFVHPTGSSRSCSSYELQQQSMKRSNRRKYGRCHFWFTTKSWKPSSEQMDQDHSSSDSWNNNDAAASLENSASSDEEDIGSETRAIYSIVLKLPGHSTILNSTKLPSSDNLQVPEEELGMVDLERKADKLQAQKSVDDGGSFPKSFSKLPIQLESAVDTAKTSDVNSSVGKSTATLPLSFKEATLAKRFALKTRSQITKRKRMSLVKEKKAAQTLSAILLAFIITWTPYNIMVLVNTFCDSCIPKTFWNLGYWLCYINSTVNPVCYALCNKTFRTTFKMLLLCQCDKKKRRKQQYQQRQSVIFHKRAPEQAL

Ki | Structure (SMILES)
3.61 nM | CN(CCCCCCCCCN1CCC(OC(=O)Nc2ccccc2-c2ccccc2)CC1)C(=O)c1ccc(Cl)cc1O [Example 60, Biphenyl-2-yl-carbamic acid 1-{9-[(4-chloro-2-hydroxy-benzoyl)-methyl-amino]-nonyl}-piperidin-4-yl ester]
0.778 nM | CN(CCCCCCCCCN1CCC(OC(=O)Nc2ccccc2-c2ccccc2)CC1)C(=O)c1ccc(F)cc1O [Example 61, Biphenyl-2-yl-carbamic acid 1-{9-[(4-fluoro-2-hydroxy-benzoyl)-methyl-amino]-nonyl}-piperidin-4-yl ester]
1.21 nM | CN(CCCCCCCCCN1CCC(OC(=O)Nc2ccccc2-c2ccccc2)CC1)C(=O)c1ccc(Cl)c(O)c1 [Example 62, Biphenyl-2-yl-carbamic acid 1-{9-[(4-chloro-3-hydroxy-benzoyl)-methyl-amino]-nonyl}-piperidin-4-yl ester]
1.12 nM | CN(CCCCCCCCCN1CCC(OC(=O)Nc2ccccc2-c2ccccc2)CC1)C(=O)c1ccc(O)cc1F [Example 63, Biphenyl-2-yl-carbamic acid 1-{9-[(2-fluoro-4-hydroxy-benzoyl)-methyl-amino]-nonyl}-piperidin-4-yl ester]
2 nM | CN(CCCCCCCCCN1CCC(OC(=O)Nc2ccccc2-c2ccccc2)CC1)C(=O)c1ccc(O)c(F)c1F [Example 64, Biphenyl-2-yl-carbamic acid 1-{9-[(2,3-difluoro-4-hydroxy-benzoyl)-methyl-amino]-nonyl}-piperidin-4-yl ester]
0.628 nM | CN(CCCCCCCCCN1CCC(OC(=O)Nc2ccccc2-c2ccccc2)CC1)C(=O)c1ccc(O)cc1Cl [Example 65, Biphenyl-2-yl-carbamic acid 1-{9-[(2-chloro-4-hydroxy-benzoyl)-methyl-amino]-nonyl}-piperidin-4-yl ester]
0.292 nM | CN(CCCCCCCCCN1CCC(OC(=O)Nc2ccccc2-c2ccccc2)CC1)C(=O)Cc1cccc(O)c1 [Example 66, Biphenyl-2-yl-carbamic acid 1-(9-{[2-(3-hydroxy-phenyl)-acetyl]-methyl-amino}-nonyl)-piperidin-4-yl ester]
0.828 nM | CN(CCCCCCCCCN1CCC(OC(=O)Nc2ccccc2-c2ccccc2)CC1)C(=O)c1cc(F)ccc1O [Example 67, Biphenyl-2-yl-carbamic acid 1-{9-[(5-fluoro-2-hydroxy-benzoyl)-methyl-amino]-nonyl}-piperidin-4-yl ester]
2.27 nM | CN(CCCCCCCCCN1CCC(OC(=O)Nc2ccccc2-c2ccccc2)CC1)C(=O)c1cc(Cl)ccc1O [Example 68, Biphenyl-2-yl-carbamic acid 1-{9-[(5-chloro-2-hydroxy-benzoyl)-methyl-amino]-nonyl}-piperidin-4-yl ester]
0.615 nM | CN(CCCCCCCCCN1CCC(OC(=O)Nc2ccccc2-c2ccccc2)CC1)C(=O)c1ccc(O)c(F)c1 [Example 69, Biphenyl-2-yl-carbamic acid 1-{9-[(3-fluoro-4-hydroxy-benzoyl)-methyl-amino]-nonyl}-piperidin-4-yl ester]

The remaining lines, values behind:

Structure (SMILES) | Ki
CN(CCCCCCCCCN1CCC(OC(=O)Nc2ccccc2-c2ccccc2)CC1)Cc1cc(Cl)cc(Cl)c1O [Example 52, Biphenyl-2-yl-carbamic acid 1-{9-[(3,5-dichloro-2-hydroxy-benzyl)-methyl-amino]-nonyl}-piperidin-4-yl ester] | 0.637 nM
CN(CCCCCCCCCN1CCC(OC(=O)Nc2ccccc2-c2ccccc2)CC1)Cc1cc(F)c(O)c(F)c1 [Example 53, Biphenyl-2-yl-carbamic acid 1-{9-[(3,5-difluoro-4-hydroxy-benzyl)-methyl-amino]-nonyl}-piperidin-4-yl ester] | 0.345 nM
CN(CCCCCCCCCN1CCC(OC(=O)Nc2ccccc2-c2ccccc2)CC1)Cc1ccc(Cl)c(O)c1Cl [Example 54, Biphenyl-2-yl-carbamic acid 1-{9-[(2,4-dichloro-3-hydroxy-benzyl)-methyl-amino]-nonyl}-piperidin-4-yl ester] | 0.233 nM
CN(CCCCCCCCCN1CCC(OC(=O)Nc2ccccc2-c2ccccc2)CC1)Cc1cc(F)cc(F)c1O [Example 55, Biphenyl-2-yl-carbamic acid 1-{9-[(3,5-difluoro-2-hydroxy-benzyl)-methyl-amino]-nonyl}-piperidin-4-yl ester] | 0.417 nM
CN(CCCCCCCCCN1CCC(OC(=O)Nc2ccccc2-c2ccccc2)CC1)C(=O)c1cc(Cl)cc(Cl)c1O [Example 56, Biphenyl-2-yl-carbamic acid 1-{9-[(3,5-dichloro-2-hydroxy-benzoyl)-methyl-amino]-nonyl}-piperidin-4-yl ester] | 11.3 nM
CN(CCCCCCCCCN1CCC(OC(=O)Nc2ccccc2-c2ccccc2)CC1)C(=O)c1cccc(Cl)c1O [Example 57, Biphenyl-2-yl-carbamic acid 1-{9-[(3-chloro-2-hydroxy-benzoyl)-methyl-amino]-nonyl}-piperidin-4-yl ester] | 0.87 nM
CN(CCCCCCCCCN1CCC(OC(=O)Nc2ccccc2-c2ccccc2)CC1)C(=O)c1ccc(F)c(F)c1O [Example 58, Biphenyl-2-yl-carbamic acid 1-{9-[(3,4-difluoro-2-hydroxy-benzoyl)-methyl-amino]-nonyl}-piperidin-4-yl ester] | 1.83 nM
CN(CCCCCCCCCN1CCC(OC(=O)Nc2ccccc2-c2ccccc2)CC1)C(=O)c1cccc(F)c1O [Example 59, Biphenyl-2-yl-carbamic acid 1-{9-[(3-fluoro-2-hydroxy-benzoyl)-methyl-amino]-nonyl}-piperidin-4-yl ester] | 1.27 nM

Molecular target: T1, human muscarinic M3 receptor
Assay: Cell based potency assessment, hM3 β-lactamase assay (CHO cell β-lactamase)
Settings: CHO cells recombinantly expressing human M3, NFAT-β-lactamase reporter; inhibition of 80 nM carbamyl choline signal, 4 h; IC50 converted by Cheng-Prusoff
Method: Cell BASED POTENCY ASSESSMENT at the Human Recombinant M3 Muscarinic Receptor
M3 potency was determined in CHO-K1 cells transfected with the NFAT-Betalactamase gene. CHO (Chinese Hamster Ovary) cells recombinantly expressing the human muscarinic M3 receptor were transfected with the NFAT_β-Lac_Zeo plasmid. Cells were grown in DMEM with Glutamax-1, supplemented with 25 mM HEPES (Life Technologies 32430-027), containing 10% FCS (Foetal Calf Serum; Sigma F-7524), […] Sodium pyruvate (Sigma S-8636), NEAA (non-Essential Amino Acids; Invitrogen 11140-035) and 200 μg/ml Zeocin (Invitrogen R250-01).
hM3 β-Lactamase Assay Protocol
Cells were harvested for assay when they reached 80-90% confluency using enzyme free cell Dissociation Solution (Life technologies 13151-014) incubated with the cells for 5 min at 37° C. in an atmosphere containing 5% CO2. Detached cells were collected in warmed growth media and centrifuged at 2000 rpm for 10 min, washed in PBS (Phosphate Buffered Saline; Life Technologies 14190-094) and centrifuged again as just described. The cells were re-suspended at 2×10^5 cells/ml in growth medium (composition as described above). 20 μl of this cell suspension was added to each well of a 384 well black clear bottomed plate (Greiner Bio One 781091-PFI). The assay buffer used was PBS supplemented with 0.05% Pluronic F-127 (Sigma 9003-11-6) and 2.5% DMSO. Muscarinic M3 receptor signalling was stimulated using 80 nM carbamyl choline (Aldrich N240-9) incubated with the cells for 4 h at 37° C./5% CO2 and monitored at the end of the incubation period using a Tecan SpectraFluor+plate reader (λ−excitation 405 nm, emission 450 nm and 503 nm). M3 receptor antagonists under test were added to the assay at the beginning of the 4 h incubation period and compound activity measured as the concentration dependent inhibition of the carbamyl choline induced signal. Inhibition curves were plotted and IC50 values generated using a 4-parameter sigmoid fit and converted to Ki values using the Cheng-Prusoff correction and the KD value for carbamyl choline in the assay.

Ki | Structure (SMILES)
8.81 nM | O=C(Nc1ccccc1-c1ccccc1)OC1CCN(CCCCCCCCCNC(=O)c2cc(F)ccc2O)CC1 [Example 9, Biphenyl-2-yl-carbamic acid 1-[9-(5-fluoro-2-hydroxy-benzoylamino)-nonyl]-piperidin-4-yl ester]
7.32 nM | O=C(Nc1ccccc1-c1ccccc1)OC1CCN(CCCCCCCCCNC(=O)c2ccc(F)c(F)c2O)CC1 [Example 12, Biphenyl-2-yl-carbamic acid 1-[9-(3,4-difluoro-2-hydroxy-benzoylamino)-nonyl]-piperidin-4-yl ester]
18 nM | O=C(Nc1ccccc1-c1ccccc1)OC1CCN(CCCCCCCCCNC(=O)c2cc(Cl)cc(Cl)c2O)CC1 [Example 13, Biphenyl-2-yl-carbamic acid 1-[9-(3,5-dichloro-2-hydroxy-benzoylamino)-nonyl]-piperidin-4-yl ester]
13.9 nM | O=C(Nc1ccccc1-c1ccccc1)OC1CCN(CCCCCCCCCNC(=O)c2ccc(Cl)cc2O)CC1 [Example 14, Biphenyl-2-yl-carbamic acid 1-[9-(4-chloro-2-hydroxy-benzoylamino)-nonyl]-piperidin-4-yl ester]
17 nM | O=C(Nc1ccccc1-c1ccccc1)OC1CCN(CCCCCCCCCNC(=O)c2cc(Cl)ccc2O)CC1 [Example 24, Biphenyl-2-yl-carbamic acid 1-[9-(2-hydroxy-5-chloro-benzoylamino)-nonyl]-piperidin-4-yl ester]

Reference: US20100016366A1, “Novel Compounds Active as Muscarinic Receptor Antagonists” (priority 2008, published 2010)
